Measurements reported in patent US10239882B2, “Substituted 5-methyl-[1,2,4]triazolo[1,5-a]pyrimidin-2-amine compounds as PDE2 inhibitors” (DART NEUROSCIENCE (CAYMAN) LTD., priority 2014, dated 2019).

Biological target: FLAG-tagged PDE2A1 (amino acids 2-941) (Homo sapiens (Human), UniProt O00408)
Assay: IMAP TR-FRET PDE2A enzymatic assay
Format: biochemical
Details: 200 nM FAM-cAMP substrate, 11-point half-log dose-response; for IC50: read-out: PDE2 (PIC50)
Text: An IMAP TR-FRET-based phosphodiesterase assay was developed using the PDE2A isoform. IMAP technology is based on high-affinity binding of phosphate by immobilized metal (MIII) coordination complexes on nanoparticles. The IMAP “binding reagent” recognizes phosphate groups on AMP or GMP generated from cAMP or cGMP in a PDE reaction. Cyclic nucleotides that carry a phosphodiester bond and not a free phosphate are not recognized by the binding reagent. The time resolved fluorescence resonance energy transfer (TR-FRET) is afforded by a Terbium (Tb)-Donor pre-bound to the nanoparticles. FRET occurs when the fluorescent-labeled AMP or GMP product of a PDE reaction binds and comes into close proximity to the Tb-Donor complex. Due to the long lifetime of Tb fluorescence, detection can be run in time-resolved mode to reduce or eliminate interference from auto-fluorescent compounds.
The IMAP TR-FRET PDE2A assay was performed in 1536-well white plates. A total of 250 pg per well of FLAG-tagged PDE2A1 (amino acids 2-941) was dispensed in 2.5 μL IMAP assay buffer consisting of 10 mM Tris pH 7.2, 10 mM MgCl2, 1 mM DTT, and 0.1% fatty acid free BSA. 30 nL of compound was then added from 1 mM stocks in DMSO using a Kalypsys Pintool. Plates were incubated for 5 min at room temperature before dispensing 1.5 μL of 533 nM FAM-cAMP substrate for a final concentration of 200 nM. Following a brief centrifugation, plates were incubated for 30 min at room temperature. The assay was terminated by adding 5 μL IMAP binding reagent Tb complex to each well which was prepared according to manufacturer's recommendations (Molecular Devices). Plates were incubated an additional 90 minutes at room temperature and read on a Viewlux plate reader. All compounds were solvated at a concentration of 10 mM in DMSO and tested in 11-point half-log dose-response. Curve fitting and IC50 values were determined using a standard four parameter fit.

Chain of FLAG-tagged PDE2A1 (amino acids 2-941) (O00408 2-941): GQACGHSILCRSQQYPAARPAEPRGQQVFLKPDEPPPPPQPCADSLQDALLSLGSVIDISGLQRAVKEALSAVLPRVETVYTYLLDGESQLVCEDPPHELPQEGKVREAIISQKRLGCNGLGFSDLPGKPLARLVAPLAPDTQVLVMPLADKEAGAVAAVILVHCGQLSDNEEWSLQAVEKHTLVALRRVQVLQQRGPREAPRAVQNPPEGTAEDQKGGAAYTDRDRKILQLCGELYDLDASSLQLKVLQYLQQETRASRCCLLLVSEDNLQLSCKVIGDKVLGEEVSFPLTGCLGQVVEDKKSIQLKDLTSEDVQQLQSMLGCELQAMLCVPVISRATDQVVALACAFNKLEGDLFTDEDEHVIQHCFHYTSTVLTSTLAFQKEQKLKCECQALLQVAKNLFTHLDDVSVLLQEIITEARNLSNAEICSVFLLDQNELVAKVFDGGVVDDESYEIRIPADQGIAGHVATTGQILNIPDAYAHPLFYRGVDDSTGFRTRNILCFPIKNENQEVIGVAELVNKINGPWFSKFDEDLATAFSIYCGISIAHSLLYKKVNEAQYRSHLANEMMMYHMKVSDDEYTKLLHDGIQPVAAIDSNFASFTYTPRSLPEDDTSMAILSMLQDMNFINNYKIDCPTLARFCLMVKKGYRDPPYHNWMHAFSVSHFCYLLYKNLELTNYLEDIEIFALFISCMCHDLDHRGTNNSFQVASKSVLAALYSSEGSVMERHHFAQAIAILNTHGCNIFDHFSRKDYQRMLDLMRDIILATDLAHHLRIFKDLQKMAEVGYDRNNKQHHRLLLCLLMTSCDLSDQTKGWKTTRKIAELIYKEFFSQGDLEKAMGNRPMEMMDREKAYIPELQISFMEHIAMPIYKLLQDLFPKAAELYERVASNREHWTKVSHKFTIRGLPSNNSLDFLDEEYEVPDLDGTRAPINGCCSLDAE

Compound | IC50 | PDE2 (PIC50)
Cc1cccc(CNc2nc3nc(C)cc(C4CCOCC4)n3n2)c1 [Example 28, 5-Methyl-N-[(3-methylphenyl)methyl]-7-(oxan-4-yl)-[1,2,4]triazolo[1,5-a]pyrimidin-2-amine] | 100 to 1000 nM | –
COc1ccc(CNc2nc3nc(C(F)F)cc(C4CCOCC4)n3n2)cc1 [Example 29, 5-(Difluoromethyl)-N-[(4-methoxyphenyl)methyl]-7-(oxan-4-yl)-[1,2,4]triazolo[1,5-a]pyrimidin-2-amine] | – | >7
COc1ccc(CNc2nc3nc(CF)cc(C4CCOCC4)n3n2)cc1 [Example 30, 5-(Fluoromethyl)-N-[(4-methoxyphenyl)methyl]-7-(oxan-4-yl)-[1,2,4]triazolo[1,5-a]pyrimidin-2-amine] | – | >7
COc1cccc(-n2cc(CNc3nc4nc(C)cc(C5CCOCC5)n4n3)cn2)c1 [Example 31, N-{[1-(3-Methoxyphenyl)-1H-pyrazol-4-yl]methyl}-5-methyl-7-(oxan-4-yl)-[1,2,4]triazolo[1,5-a]pyrimidin-2-amine] | – | >7
COc1ccc(F)c(CNc2nc3nc(C)cc(C4CCOCC4)n3n2)c1 [Example 32, N-[(2-Fluoro-5-methoxyphenyl)methyl]-5-methyl-7-(oxan-4-yl)-[1,2,4]triazolo[1,5-a]pyrimidin-2-amine] | 100 to 1000 nM | –
Cc1cc(C2CCOCC2)n2nc(NCc3ccccc3)nc2n1 [Example 33, N-Benzyl-5-methyl-7-(oxan-4-yl)-[1,2,4]triazolo[1,5-a]pyrimidin-2-amine] | 100 to 1000 nM | –
COc1ccc(CNc2nc3nc(C)cc(C4(C)CCOCC4)n3n2)cc1 [Example 34, N-[(4-Methoxyphenyl)methyl]-5-methyl-7-(4-methyloxan-4-yl)-[1,2,4]triazolo[1,5-a]pyrimidin-2-amine] | 100 to 1000 nM | –
Cc1cc(CNc2nc3nc(C)cc(C4CCOCC4)n3n2)ccn1 [Example 35, 5-Methyl-N-[(2-methylpyridin-4-yl)methyl]-7-(oxan-4-yl)-[1,2,4]triazolo[1,5-a]pyrimidin-2-amine] | 100 to 1000 nM | –
Cc1cc(C2CCOCC2)n2nc(NCc3cnn(-c4ccccc4C)c3)nc2n1 [Example 36, 5-Methyl-N-{[1-(2-methylphenyl)-1H-pyrazol-4-yl]methyl}-7-(oxan-4-yl)-[1,2,4]triazolo[1,5-a]pyrimidin-2-amine] | – | >7
Cc1cc(C2CCOCC2)n2nc(NCc3cc(-c4ccccc4)no3)nc2n1 [Example 37, 5-Methyl-7-(oxan-4-yl)-N-[(3-phenyl-1,2-oxazol-5-yl)methyl]-[1,2,4]triazolo[1,5-a]pyrimidin-2-amine] | – | >7
COc1ccc(CNc2nc3nc(C)cc(C4CCCOC4)n3n2)cc1 (centres unmarked) [Example 38, N-[(4-Methoxyphenyl)methyl]-5-methyl-7-(oxan-3-yl)-[1,2,4]triazolo[1,5-a]pyrimidin-2-amine] | – | >7
Cc1cc(C2CCOCC2)n2nc(NCc3cccc(Br)c3)nc2n1 [Example 39, N-[(3-Bromophenyl)methyl]-5-methyl-7-(oxan-4-yl)-[1,2,4]triazolo[1,5-a]pyrimidin-2-amine] | – | >7
Cc1cc(C2CCOCC2)n2nc(NCc3cccc(Cl)c3)nc2n1 [Example 40, N-[(3-Chlorophenyl)methyl]-5-methyl-7-(oxan-4-yl)-[1,2,4]triazolo[1,5-a]pyrimidin-2-amine] | – | >7
Cc1cc(C2CCOCC2)n2nc(NCc3cccc(C(F)(F)F)c3)nc2n1 [Example 41, 5-Methyl-7-(oxan-4-yl)-N-{[3-(trifluoromethyl)phenyl]methyl}-[1,2,4]triazolo[1,5-a]pyrimidine-2-amine] | – | >7
Cc1cc(C2CCOCC2)n2nc(NCc3ccc4c(c3)CCO4)nc2n1 [Example 42, N-(2,3-Dihydro-1-benzofuran-5-ylmethyl)-5-methyl-7-(oxan-4-yl)-[1,2,4]triazolo[1,5-a]pyrimidin-2-amine] | – | >7
Cc1cc(CNc2nc3nc(C)cc(C4(C)CCOCC4)n3n2)ccn1 [Example 43, 5-Methyl-7-(4-methyloxan-4-yl)-N-[(2-methylpyridin-4-yl)methyl]-[1,2,4]triazolo[1,5-a]pyrimidin-2-amine] | 100 to 1000 nM | –

Compound | IC50 | PDE2 (PIC50)
COc1ccc(CNc2nc3nc(C)cc(C4CCOC4)n3n2)cc1 (centres unmarked) [Example 44, N-[(4-Methoxyphenyl)methyl]-5-methyl-7-(oxolan-3-yl)-[1,2,4]triazolo[1,5-a]pyrimidin-2-amine] | 100 to 1000 nM | –
Cc1cc(C2CCOCC2)n2nc(NCc3ccc4c(c3)OC(F)(F)O4)nc2n1 [Example 45, N-[(2,2-Difluoro-2H-1,3-benzodioxol-5-yl)methyl]-5-methyl-7-(oxan-4-yl)-[1,2,4]triazolo[1,5-a]pyrimidin-2-amine] | 100 to 1000 nM | –
Cc1cc(C2CCOCC2)n2nc(NCc3cn(-c4ccccc4)nc3C)nc2n1 [Example 46, 5-Methyl-N-[(3-methyl-1-phenyl-1H-pyrazol-4-yl)methyl]-7-(oxan-4-yl)-[1,2,4]triazolo[1,5-a]pyrimidin-2-amine] | – | >7
Cc1cc(C2CCOCC2)n2nc(NCc3ccccc3C)nc2n1 [Example 47, 5-Methyl-N-[(2-methylphenyl)methyl]-7-(oxan-4-yl)-[1,2,4]triazolo[1,5-a]pyrimidin-2-amine] | 100 to 1000 nM | –
Cc1cc(C2CCOCC2)n2nc(NCc3ccccc3Cl)nc2n1 [Example 48, N-[(2-Chlorophenyl)methyl]-5-methyl-7-(oxan-4-yl)-[1,2,4]triazolo[1,5-a]pyrimidin-2-amine] | 100 to 1000 nM | –
Cc1cc(C2CCOCC2)n2nc(NCc3cc(F)ccc3F)nc2n1 [Example 49, N-[(2,5-Difluorophenyl)methyl]-5-methyl-7-(oxan-4-yl)-[1,2,4]triazolo[1,5-a]pyrimidin-2-amine] | 100 to 1000 nM | –
COc1cc(F)c(CNc2nc3nc(C)cc(C4CCOCC4)n3n2)c(F)c1 [Example 50, N-[(2,6-Difluoro-4-methoxyphenyl)methyl]-5-methyl-7-(oxan-4-yl)-[1,2,4]triazolo[1,5-a]pyrimidin-2-amine] | – | >7
Cc1cc(C2CCOCC2)n2nc(NCc3c(F)cccc3F)nc2n1 [Example 51, N-[(2,6-Difluorophenyl)methyl]-5-methyl-7-(oxan-4-yl)-[1,2,4]triazolo[1,5-a]pyrimidin-2-amine] | 100 to 1000 nM | –
Cc1cc(C2CCOCC2)n2nc(NCc3ccnc(C(F)F)c3)nc2n1 [Example 52, N-{[2-(Difluoromethyl)pyridin-4-yl]methyl}-5-methyl-7-(oxan-4-yl)-[1,2,4]triazolo[1,5-a]pyrimidin-2-amine] | – | >7
Cc1cc(CNc2nc3nc(C)cc(C4CCOCC4)n3n2)cc(C)n1 [Example 53, N-[(2,6-Dimethylpyridin-4-yl)methyl]-5-methyl-7-(oxan-4-yl)-[1,2,4]triazolo[1,5-a]pyrimidin-2-amine] | – | >7
Cc1cncc(CNc2nc3nc(C)cc(C4CCOCC4)n3n2)c1 [Example 54, 5-Methyl-N-[(5-methylpyridin-3-yl)methyl]-7-(oxan-4-yl)-[1,2,4]triazolo[1,5-a]pyrimidin-2-amine] | – | >7
COc1ccc(CNc2nc3nc(C)cc(C4(F)CCOCC4)n3n2)cc1 [Example 55, 7-(4-Fluorooxan-4-yl)-N-[(4-methoxyphenyl)methyl]-5-methyl-[1,2,4]triazolo[1,5-a]pyrimidin-2-amine] | – | >7
Cc1cc(C2CCOCC2)n2nc(NCc3ccc(F)c(F)c3)nc2n1 [Example 56, N-[(3,4-Difluorophenyl)methyl]-5-methyl-7-(oxan-4-yl)-[1,2,4]triazolo[1,5-a]pyrimidin-2-amine] | 100 to 1000 nM | –
Cc1cc(C2CCOCC2)n2nc(NCc3ccc(F)cc3)nc2n1 [Example 57, N-[(4-Fluorophenyl)methyl]-5-methyl-7-(oxan-4-yl)-[1,2,4]triazolo[1,5-a]pyrimidin-2-amine] | 100 to 1000 nM | –
Cc1cc(C2CCOCC2)n2nc(NCc3cccc(F)c3)nc2n1 [Example 58, N-[(3-Fluorophenyl)methyl]-5-methyl-7-(oxan-4-yl)-[1,2,4]triazolo[1,5-a]pyrimidin-2-amine] | 100 to 1000 nM | –
Cc1cc(C2CCOCC2)n2nc(NCc3ccnc(C(F)(F)F)c3)nc2n1 [Example 59, 5-Methyl-7-(oxan-4-yl)-N-{[2-(trifluoromethyl)pyridin-4-yl]methyl}-[1,2,4]triazolo[1,5-a]pyrimidin-2-amine] | – | >7
